# Source: patent US6432958B1, “2-piperazinoalkylaminobenzoazole derivatives: dopamine receptor subtype specific ligands” (Neurogen Corporation, priority 1998, dated 2002)
# Target: T1, D2 receptors from human (Homo sapiens, UniProt P14416)
# T1 construct: expressed in transfected cells; host or cells: COS cells
# Experiment: D2 receptor binding assay (3H-YM 09151-2 displacement)
# Conditions: COS cells containing recombinantly produced human D2 receptors; 0.5 nM 3H-YM 09151-2
# Description: (§1) Assays for D2, D3 and D4 Receptor Binding Activity
# (§2) Pellets of COS cells containing recombinantly produced D2 or D4 receptors from human are used for the assays. The sample is homogenized in 100 volumes (w/vol) of 0.05 M Tris HCl buffer at 4° C. and pH 7.4. The sample is then centrifuged at 30,000×g and resuspended and rehomogenized. The sample is then centrifuged again at 30,000×g and the final tissue sample is frozen until use. The tissue is resuspended 1:20 (wt/vol) in 0.05 M Tris HCl buffer containing 100 mM NaCl.
# (§3) Incubations are carried out a […] and contain 0.4 ml of tissue sample, 0.5 nM ^3H-YM 09151-2 (Nemonapride, cis-5-Chloro-2-methoxy-4-(methylamino)-N-(2-methyl-2-(phenylmethyl)-3-pyrrolidinyl)benzamide) and the compound of interest in a total incubation of 1.0 ml. Nonspecific binding is defined as that binding found in the presence of […] spiperone; without further additions, nonspecific binding is less than 20% of total binding.
# T1 sequence (P14416 whole entry): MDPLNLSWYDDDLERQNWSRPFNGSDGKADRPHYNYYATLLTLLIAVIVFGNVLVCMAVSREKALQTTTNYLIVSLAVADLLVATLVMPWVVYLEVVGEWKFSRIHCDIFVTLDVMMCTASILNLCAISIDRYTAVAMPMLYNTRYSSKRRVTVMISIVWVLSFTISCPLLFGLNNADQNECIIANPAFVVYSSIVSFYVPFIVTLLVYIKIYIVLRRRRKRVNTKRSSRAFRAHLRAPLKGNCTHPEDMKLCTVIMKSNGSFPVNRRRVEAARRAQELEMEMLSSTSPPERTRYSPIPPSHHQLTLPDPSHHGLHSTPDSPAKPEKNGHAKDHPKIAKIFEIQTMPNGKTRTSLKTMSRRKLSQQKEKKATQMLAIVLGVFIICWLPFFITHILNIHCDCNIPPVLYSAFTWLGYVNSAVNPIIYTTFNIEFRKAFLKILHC
row,Ki [nM],SMILES
1,175,"COc1ccccc1N1CCN(CCNc2nc3ccc(F)cc3s2)CC1 [Compound 2, 1-(2-Methoxyphenyl)-4-(2-[6-fluorobenzothiazol-2-ylamino]ethyl)piperazine difumarate]"
2,> 10000,"Cl.c1ccc(N2CCN(CCNc3nc4ccccc4o3)CC2)nc1 [Compound 3, 1-(Pyridin-2-yl)-4-(2-[benzoxazol-2-yl]aminoethyl)piperazine hydrochloride]"
3,1640,Fc1cnc(N2CCN(CCCCNc3nc4ccccc4s3)CC2)nc1 [Compound 6]

row,SMILES,Ki [nM]
1,"Br.Cn1c(NCCN2CCN(c3cccc(C(F)(F)F)c3)CC2)nc2ccccc21 [Compound 1, 1-(3-Trifluoromethylphenyl)-4-(2-[1-methylbenzimidazol-2-yl]aminoethyl)piperazine hydrobromide]",> 10000

# System: not given
# Experiment: not given
# Conditions: not given
row,melting point,SMILES
1,167 to 170 °C,Cc1cnc(N2CCN(CCNc3nc4ccccc4s3)CC2)nc1.O=C(O)/C=C/C(=O)O.O=C(O)/C=C/C(=O)O
2,131 to 132 °C,O=C(O)/C=C/C(=O)O.O=C(O)/C=C/C(=O)O.c1ccc(N2CCN(CCNc3nc4ccccc4s3)CC2)cc1
3,159 to 160 °C,O=C(O)/C=C/C(=O)O.O=C(O)/C=C/C(=O)O.c1ccc(N2CCN(CCNc3nc4ccccc4s3)CC2)nc1
4,230 to 232 °C,Cl.Cl.Clc1ccc(N2CCN(CCNc3nc4ccccc4s3)CC2)cc1
5,229 to 231 °C,Cl.Cl.Fc1ccc(N2CCN(CCNc3nc4ccccc4s3)CC2)cc1
6,101 to 103 °C,COc1ccccc1N1CCN(CCNc2nc3ccccc3s2)CC1.O=C(O)/C=C/C(=O)O.O=C(O)/C=C/C(=O)O
7,195 to 197 °C,Br.COc1ccccc1N1CCN(CCCNc2nc3ccccc3s2)CC1
8,171 to 173 °C,Br.COc1ccccc1N1CCN(CCNc2nc3c(OC)cccc3s2)CC1
9,226 to 227 °C,Br.COc1ccccc1N1CCN(CCNc2nc3c(C)cccc3s2)CC1
10,194 to 195 °C,Br.COc1ccccc1N1CCN(CCNc2nc3c(Cl)cccc3s2)CC1
11,227 to 228 °C,Br.CCOc1ccc2nc(NCCN3CCN(c4ccccc4OC)CC3)sc2c1
12,190 to 196 °C,Br.COc1ccccc1N1CCN(CCNc2nc3ccc(S(C)(=O)=O)cc3s2)CC1
13,179 to 180 °C,Fc1ccc2nc(NCCN3CCN(c4ncccn4)CC3)sc2c1.O=C(O)/C=C/C(=O)O.O=C(O)/C=C/C(=O)O
14,228 to 229 °C,Fc1ccc2nc(NCCN3CCN(Cc4ccccc4)CC3)sc2c1.O=C(O)/C=C/C(=O)O.O=C(O)/C=C/C(=O)O
15,238 to 240 °C,Br.Fc1ccc2nc(NCCN3CCN(Cc4ccc(Cl)cc4)CC3)sc2c1
16,235 to 237 °C,Br.CCOc1ccccc1N1CCN(CCNc2nc3ccc(F)cc3s2)CC1
17,279 to 281 °C,Br.Fc1cnc(N2CCN(CCNc3nc4ccc(F)cc4s3)CC2)nc1

row,melting point,SMILES
1,240 to 250 °C,Br.Cc1cnc(N2CCN(CCNc3nc4ccc(F)cc4s3)CC2)nc1
2,259 to 260 °C,Br.Fc1ccc2nc(NCCN3CCN(c4ccccn4)CC3)sc2c1
3,259 to 261 °C,Br.Fc1ccc2nc(NCCN3CCN(c4cccc(C(F)(F)F)c4)CC3)sc2c1
4,268 to 270 °C,Br.Fc1ccc2nc(NCCN3CCN(c4ccccc4)CC3)sc2c1
5,270 to 271 °C,Br.Fc1ccc(N2CCN(CCNc3nc4ccc(F)cc4s3)CC2)cc1
6,216 to 217 °C,Br.CC(C)Oc1ccccc1N1CCN(CCNc2nc3ccc(F)cc3s2)CC1
7,197 to 202 °C,Cl.c1cnc(N2CCN(CCNc3nc4ccccc4o3)CC2)nc1
8,215 to 216 °C,Br.COc1ccccc1N1CCN(CCNc2nc3ccccc3[nH]2)CC1
9,241 to 247 °C,Br.c1ccc(N2CCN(CCNc3nc4ccccc4[nH]3)CC2)cc1
10,290 to 291 °C,Br.c1ccc(N2CCN(CCNc3nc4ccccc4[nH]3)CC2)nc1
11,273 to 274 °C,Br.COc1ccccc1N1CCN(CCNc2nc3ccccc3n2C)CC1
12,285 °C (dec.),Br.CC(C)Oc1ccccc1N1CCN(CCNc2nc3ccccc3n2C)CC1
13,109 to 110 °C,Br.CCn1c(NCCN2CCN(c3ccccc3OC)CC2)nc2ccccc21
14,270 °C (dec.),Br.CCn1c(NCCN2CCN(c3ccccc3)CC2)nc2ccccc21
15,161 to 163 °C,O=C(O)/C=C/C(=O)O.O=C(O)/C=C/C(=O)O.c1cnc(N2CCN(CCNc3nc4ccccc4s3)CC2)nc1
16,174 to 175 °C,Fc1cnc(N2CCN(CCNc3nc4ccccc4s3)CC2)nc1.O=C(O)/C=C/C(=O)O.O=C(O)/C=C/C(=O)O
17,255 to 265 °C,"Cl.c1ccc(N2CCN(CCNc3nc4ccccc4o3)CC2)nc1 [Compound 3, 1-(Pyridin-2-yl)-4-(2-[benzoxazol-2-yl]aminoethyl)piperazine hydrochloride]"

row,SMILES,melting point
1,"Br.Cn1c(NCCN2CCN(c3cccc(C(F)(F)F)c3)CC2)nc2ccccc21 [Compound 1, 1-(3-Trifluoromethylphenyl)-4-(2-[1-methylbenzimidazol-2-yl]aminoethyl)piperazine hydrobromide]",283 °C (dec.)

# Target: T2, D4 receptors from human (Homo sapiens, UniProt P21917)
# T2 construct: expressed in transfected cells; host or cells: COS cells
# T2 sequence (P21917 1-419): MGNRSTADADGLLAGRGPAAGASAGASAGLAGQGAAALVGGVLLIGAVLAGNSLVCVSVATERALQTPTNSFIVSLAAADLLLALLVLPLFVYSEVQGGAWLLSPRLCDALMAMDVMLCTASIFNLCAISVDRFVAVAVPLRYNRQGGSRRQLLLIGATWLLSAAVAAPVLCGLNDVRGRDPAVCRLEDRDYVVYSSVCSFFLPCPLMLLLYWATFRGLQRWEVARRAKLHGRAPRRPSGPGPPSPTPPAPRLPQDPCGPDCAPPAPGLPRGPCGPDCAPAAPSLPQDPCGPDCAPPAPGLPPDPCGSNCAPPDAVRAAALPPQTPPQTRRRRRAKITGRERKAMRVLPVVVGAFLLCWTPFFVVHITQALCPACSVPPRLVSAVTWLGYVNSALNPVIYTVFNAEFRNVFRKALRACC
# Experiment: D4 receptor binding assay (3H-YM 09151-2 displacement)
# Conditions: COS cells containing recombinantly produced human D4 receptors; 0.5 nM 3H-YM 09151-2
# Description: as §1, §2, §3
row,Ki [nM],SMILES
1,1,"COc1ccccc1N1CCN(CCNc2nc3ccc(F)cc3s2)CC1 [Compound 2, 1-(2-Methoxyphenyl)-4-(2-[6-fluorobenzothiazol-2-ylamino]ethyl)piperazine difumarate]"
2,11,"Cl.c1ccc(N2CCN(CCNc3nc4ccccc4o3)CC2)nc1 [Compound 3, 1-(Pyridin-2-yl)-4-(2-[benzoxazol-2-yl]aminoethyl)piperazine hydrochloride]"
3,6,Fc1cnc(N2CCN(CCCCNc3nc4ccccc4s3)CC2)nc1 [Compound 6]

row,SMILES,Ki [nM]
1,"Br.Cn1c(NCCN2CCN(c3cccc(C(F)(F)F)c3)CC2)nc2ccccc21 [Compound 1, 1-(3-Trifluoromethylphenyl)-4-(2-[1-methylbenzimidazol-2-yl]aminoethyl)piperazine hydrobromide]",3
